Here are results for 25 molecules from PubChem BioAssay AID330 (DTP/NCI, 2004).

Several values for one entry are separate records, joined by “and”; a condition that tells them apart may be missing. Equal values may be shown once. Toxic doses and inconclusive results are not listed.

In this experiment the test system is P388 leukemia ip, CD2F1 mice, survival T/C. The experiment is described as follows: NCI In Vivo Anticancer Drug Screen. Data for tumor model P388 Leukemia (intraperitoneal) in CD2F1 (CDF1) mice. As to conditions: endpoint: median survival time, higher = longer survival. In outline:
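Mice carrying the transplanted tumor received test compound or vehicle. Survival was recorded in each group, and the value is the treated-group measurement divided by that of the vehicle-treated control group.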

The mark [1] stands for this setting: dose: 50.0 mg/kg/injection, schedule: Q01DX009 (ip), vehicle: saline.
Setting [2] is: dose: 100.0 mg/kg/injection, schedule: Q01DX009 (ip), vehicle: saline.
Setting [3] is: dose: 200.0 mg/kg/injection, schedule: Q01DX009 (ip), vehicle: saline.
Where [4] appears, read: dose: 100.0 mg/kg/injection, schedule: Q04DX003 (ip), vehicle: Klucel (hydroxypropylcellulose) (HPC).
Where [5] appears, read: dose: 200.0 mg/kg/injection, schedule: Q04DX003 (ip), vehicle: Klucel (hydroxypropylcellulose) (HPC).
The mark [6] stands for this setting: dose: 60.0 mg/kg/injection, schedule: Q01DX005 (ip), vehicle: saline with Tween-80.
Setting [7] is: dose: 120.0 mg/kg/injection, schedule: Q01DX005 (ip), vehicle: saline with Tween-80.
Setting [8] is: dose: 240.0 mg/kg/injection, schedule: Q01DX005 (ip), vehicle: saline with Tween-80.
Where [9] appears, read: dose: 50.0 mg/kg/injection, schedule: Q01DX009 (ip), vehicle: saline with Tween-80.
Setting [10] is: dose: 100.0 mg/kg/injection, schedule: Q01DX009 (ip), vehicle: saline with Tween-80.
The mark [11] stands for this setting: dose: 200.0 mg/kg/injection, schedule: Q01DX009 (ip), vehicle: saline with Tween-80.
Where [12] appears, read: dose: 50.0 mg/kg/injection, schedule: Q01DX005 (ip), vehicle: saline with Tween-80.
The mark [13] stands for this setting: dose: 100.0 mg/kg/injection, schedule: Q01DX005 (ip), vehicle: saline with Tween-80.
[14] abbreviates: dose: 200.0 mg/kg/injection, schedule: Q01DX005 (ip), vehicle: saline with Tween-80.
Setting [15] is: dose: 50.0 mg/kg/injection, schedule: Q04DX003 (ip), vehicle: Klucel (hydroxypropylcellulose) (HPC).
[16] abbreviates: dose: 25.0 mg/kg/injection, schedule: Q01DX005 (ip), vehicle: Klucel (hydroxypropylcellulose) (HPC).
The mark [17] stands for this setting: dose: 50.0 mg/kg/injection, schedule: Q01DX005 (ip), vehicle: Klucel (hydroxypropylcellulose) (HPC).
Setting [18] is: dose: 100.0 mg/kg/injection, schedule: Q01DX005 (ip), vehicle: Klucel (hydroxypropylcellulose) (HPC).
Where [19] appears, read: dose: 200.0 mg/kg/injection, schedule: Q01DX005 (ip), vehicle: Klucel (hydroxypropylcellulose) (HPC).

As for `CCCCCCC(/C=C/c1ccc(Cl)c(Cl)c1)=N\NC(=O)C[n+]1ccccc1`, the T/C runs as follows: under setting [1], 99 % of control; under setting [2], 101 % of control; under setting [3], 101 % of control.

As for `CCOC(=O)c1c(C)c2c(n1Cc1ccccc1)CCCC2=O`, the T/C is 99 % of control under setting [4]; 97 % of control under setting [5]; 98 % of control (dose: 400.0 mg/kg/injection, schedule: Q04DX003 (ip), vehicle: Klucel (hydroxypropylcellulose) (HPC)).

As for `O=c1nnc(O)c2ccn(O)cc1-2`, the T/C under setting [6] was 99 % of control, the T/C under setting [7] was 103 % of control and the T/C under setting [8] was 99 % of control.

On to `N#Cc1ccc(OC(=O)Nc2ccccc2Cl)cc1`, for which the T/C is, setting by setting: under setting [6], 94 % of control; under setting [7], 95 % of control; under setting [8], 86 % of control.

As for `COc1ccc2c(O)c(S(=O)(=O)c3ccc(Cl)cc3)c(=O)oc2c1`, the T/C by setting is: under setting [6], 102 % of control; under setting [7], 112 % of control; under setting [8], 102 % of control.

For the molecule `N#CCCCCCBr`, the T/C is, setting by setting: under setting [9], 98 % of control; under setting [10], 100 % of control; under setting [11], 100 % of control.

As for `COC1C(COC(=O)c2ccccc2)OC(OC(C)=O)C1OC(C)=O` (stereo unspecified), the T/C by setting is: under setting [12], 94 % of control; under setting [13], 96 % of control; under setting [14], 100 % of control.

As to `O=C1NCCc2ccc(cc2)OCCC(=O)N2CCCC12` (stereo unspecified), the T/C is, setting by setting: (dose: 35.0 mg/kg/injection, schedule: Q01DX005 (ip), vehicle: Klucel (hydroxypropylcellulose) (HPC)) 107 % of control; (dose: 70.0 mg/kg/injection, schedule: Q01DX005 (ip), vehicle: Klucel (hydroxypropylcellulose) (HPC)) 104 % of control; (dose: 140.0 mg/kg/injection, schedule: Q01DX005 (ip), vehicle: Klucel (hydroxypropylcellulose) (HPC)) 98 % of control.

Consider `COC(=O)C[N+](=O)[O-]`, for which the T/C is, setting by setting: under setting [1], 103 % of control; under setting [2], 99 % of control; under setting [3], 110 % of control.

On to `NNc1nccnc1Cl`, for which the T/C by setting is: (dose: 50.0 mg/kg/injection, schedule: Q01DX001 (ip), vehicle: saline with Tween-80) 102 % of control; (dose: 100.0 mg/kg/injection, schedule: Q01DX001 (ip), vehicle: saline with Tween-80) 97 % of control; (dose: 200.0 mg/kg/injection, schedule: Q01DX001 (ip), vehicle: saline with Tween-80) 108 % of control.

`COC1=C2C[C@@H](C)C[C@@H](OC)[C@@H](O)[C@H](C)/C=C(\C)[C@@H](OC(N)=O)[C@H](OC)/C=C\C=C(/C)C(=O)NC(=CC1=O)C2=O`: the T/C is 114 % of control (dose: 0.75 mg/kg/injection, schedule: Q01DX009 (ip), vehicle: saline with Tween-80) and 115 % of control (dose: 1.5 mg/kg/injection, schedule: Q01DX009 (ip), vehicle: saline with Tween-80).

`O=C1CSC(c2c(F)cccc2Cl)N1c1nncs1` (stereo unspecified): the T/C reads like this: (dose: 60.0 mg/kg/injection, schedule: Q01DX005 (ip), vehicle: Klucel (hydroxypropylcellulose) (HPC)) 102 % of control and 104 % of control; (dose: 120.0 mg/kg/injection, schedule: Q01DX005 (ip), vehicle: Klucel (hydroxypropylcellulose) (HPC)) 105 % of control.

For `N#CN=[N+]([O-])c1cccc(Br)c1`, the T/C (dose: 6.25 mg/kg/injection, schedule: Q04DX003 (ip), vehicle: Klucel (hydroxypropylcellulose) (HPC)) is 102 % of control; the T/C (dose: 12.5 mg/kg/injection, schedule: Q04DX003 (ip), vehicle: Klucel (hydroxypropylcellulose) (HPC)) is 101 % of control; the T/C (dose: 25.0 mg/kg/injection, schedule: Q04DX003 (ip), vehicle: Klucel (hydroxypropylcellulose) (HPC)) is 105 % of control; the T/C under setting [15] was 100 % of control.

For the molecule `Cc1ccc2ccc3ccc(CBr)nc3c2n1`, the T/C is, setting by setting: (dose: 3.12 micromoles/kg, schedule: Q01DX005 (ip), vehicle: other) 110 % of control; (dose: 6.25 micromoles/kg, schedule: Q01DX005 (ip), vehicle: other) 99 % of control; (dose: 12.0 micromoles/kg, schedule: Q01DX005 (ip), vehicle: other) 111 % of control.

For `CCCCCCCCCCCCCCC/C([O-])=N/[N+](C)(C)CC(C)O` (stereo unspecified), the T/C reads like this: under setting [15], 99 % of control; under setting [4], 99 % of control; under setting [5], 99 % of control.

Consider `Nc1nc(=S)c2[nH]c(=S)n(C3OC(CO)C(O)C3O)c2[nH]1` (stereo unspecified), for which the T/C was 100 % of control under setting [16], 105 % of control under setting [17], 103 % of control under setting [18] and 112 % of control under setting [19].

On to `O=C(/C=C/c1ccccc1O)c1ccccc1`, for which the T/C reads like this: under setting [9], 97 % of control; under setting [10], 102 % of control; under setting [11], 108 % of control.

For the molecule `COc1cc2c3c(c1O)-c1c(cccc1OC)CC3N(C)CC2` (stereo unspecified), the T/C is 90 % of control (dose: 12.5 mg/kg/injection, schedule: Q04DX003 (ip), vehicle: saline with Tween-80); 100 % of control and 88 % of control (dose: 25.0 mg/kg/injection, schedule: Q04DX003 (ip), vehicle: saline with Tween-80).

Regarding `CC(C)C(C(O)c1ccccc1)[N+](=O)[O-]` (stereo unspecified), the T/C under setting [10] is 104 % of control; the T/C under setting [11] was 95 % of control; the T/C (dose: 400.0 mg/kg/injection, schedule: Q01DX009 (ip), vehicle: saline with Tween-80) was 86 % of control.

On to `C=CCCCC1(c2ccccc2)C(=O)Oc2ccccc21` (stereo unspecified), for which the T/C is 98 % of control under setting [12], 89 % of control under setting [13] and 90 % of control under setting [14].

With `COc1ccc2c(c1O)-c1cc(O)cc3c1C(C2)N(C(=O)CN(CCCl)CCCl)CC3` (stereo unspecified), the T/C reads like this: (dose: 12.5 mg/kg/injection, schedule: Q04DX003 (ip), vehicle: distilled water + Tween-80) 158 % of control; (dose: 12.5 mg/kg/injection, schedule: Q04DX003 (ip), vehicle: water) 158 % of control; (dose: 25.0 mg/kg/injection, schedule: Q04DX003 (ip), vehicle: distilled water + Tween-80) 114 % of control; (dose: 25.0 mg/kg/injection, schedule: Q04DX003 (ip), vehicle: water) 116 % of control; (dose: 50.0 mg/kg/injection, schedule: Q04DX003 (ip), vehicle: water) 96 % of control.

For `N=C(N)c1ccc(/C=C/c2cc3cc(C(=N)N)ccc3[nH]2)cc1`, the T/C reads like this: (dose: 6.25 mg/kg/injection, schedule: Q04DX003 (ip), vehicle: saline) 101 % of control and 108 % of control; (dose: 12.5 mg/kg/injection, schedule: Q04DX003 (ip), vehicle: saline) 99 % of control and 102 % of control; (dose: 25.0 mg/kg/injection, schedule: Q04DX003 (ip), vehicle: saline) 99 % of control and 101 % of control.

As for `CCCCOC(=O)c1ccc(NC(=O)Nc2cc(C)ccc2C)cc1`, the T/C runs as follows: under setting [9], 96 % of control; under setting [10], 94 % of control; under setting [11], 91 % of control.

Regarding `COC(=O)C1O[C@H]1c1cccc[n+]1[O-]` (mixture of isomers), the T/C is, setting by setting: (dose: 25.0 mg/kg/injection, schedule: Q01DX005 (ip), vehicle: water) 102 % of control; (dose: 50.0 mg/kg/injection, schedule: Q01DX005 (ip), vehicle: water) 101 % of control; (dose: 100.0 mg/kg/injection, schedule: Q01DX005 (ip), vehicle: water) 101 % of control; (dose: 200.0 mg/kg/injection, schedule: Q01DX005 (ip), vehicle: water) 103 % of control.

In the case of `N=C(N)c1ccc(N=Nc2ccc(O)c3c2ccc[n+]3[O-])cc1`, the T/C is 106 % of control (dose: 3.13 mg/kg/injection, schedule: Q01DX005 (ip), vehicle: Klucel (hydroxypropylcellulose) (HPC)); 97 % of control (dose: 6.25 mg/kg/injection, schedule: Q01DX005 (ip), vehicle: Klucel (hydroxypropylcellulose) (HPC)); 106 % of control (dose: 12.5 mg/kg/injection, schedule: Q01DX005 (ip), vehicle: Klucel (hydroxypropylcellulose) (HPC)); 109 % of control and 110 % of control and 117 % of control under setting [16]; 117 % of control under setting [17]; 103 % of control and 123 % of control under setting [18]. Besides, the T/C under setting [19] is 110 % of control.
